The values below come from patent publication US20250339547A1, “MET BCL-XL INHIBITOR ANTIBODY-DRUG CONJUGATES AND METHODS OF USE THEREOF” (Novartis AG, priority 2022, published 2025).

A word on the pIC50: it is −log10 of the IC50, conventionally taken in molar units.

The test system of data set [1] is hematological malignancies and solid tumors. Particulars: several hematological malignancies and solid tumors; cited from earlier work.
The subject of another data set is lymphoid malignancies. Particulars: cited from earlier work.
For a further data set, the system named is AsPC-1. Briefly: Pancreatic cancer cell line viability, single agent or 1:1 combination (CTG 120h), Example 10. The data set is classed as cell-based. To be noted: Homo sapiens, ASPC1, 120 h, AsPC-1, CTG 120 h. On the procedure:
(§1) Cell lines were cultured in the media described above at 37° C. in a humidified atmosphere containing 5% CO2. Cells were seeded in 96 well clear bottom plates (96 well clear-bottom, white, Corning reference 3903) and exposed to the mAbs or ADCs as single agents or in 1:1 combination with Paclitaxel, Trametinib or Gemcitabine. When in 1:1 combination, both the combining partner (Paclitaxel, Trametinib or Gemcitabine) and the mAb or ADC were serially diluted (9 concentrations each, triplicates). Effect on cell viability was assessed after 5 days of incubation at 37° C./5% CO2 by quantification of cellular ATP levels using CellTiter-Glo reagent (Promega Ref: G7571) at 75 μL reagent/well. All the conditions were tested in triplicates. Luminescence was quantified on a multipurpose plate reader. IC50s were calculated using standard four-parametric curve fitting. IC50 is defined as the compound concentration at which the CTG signal is reduced to 50% of that measured for the control. Two independent experiments were performed (N1 and N2).

For the next data set, the system named is BxPC-3. Described as above. The data set is classed as cell-based. Particulars: Homo sapiens, BXPC-3, 120 h, BxPC-3, CTG 120 h. The protocol:
as §1

In a further data set the test system is Hs766T. The description is as above. The data set is classed as cell-based. On the procedure: as §1
The test system of the next data set is KP-4. Described as above. The data set is classed as cell-based. Particulars: Homo sapiens, KP-4, 120 h, KP-4, CTG 120 h. The protocol: as §1
In another data set the test system is Panc 10.05. The description is as above. The data set is classed as cell-based. To be noted: Homo sapiens, Panc1005, 120 h, Panc 10.05, CTG 120 h. The protocol:
as §1

Data set [2] concerns pancreatic cancer cell lines. Briefly: Pancreatic cancer cell line panel of Example 10 (CTG 120h). The data set is classed as cell-based. To be noted: pancreatic cancer cell lines of Table 16, single agents.
Description: Cell lines were cultured in the media described above at 37° C. in a humidified atmosphere containing 5% CO2. […] When in 1:1 combination, both the combining partner (Paclitaxel, Trametinib or Gemcitabine) and the mAb or ADC were serially diluted (9 concentrations each, triplicates). Effect on cell viability was assessed after 5 days of incubation at 37° C./5% CO2 by quantification of cellular ATP levels using CellTiter-Glo reagent (Promega Ref: G7571) at 75 μL reagent/well. All the conditions were tested in triplicates. Luminescence was quantified on a multipurpose plate reader. IC50s were calculated using standard four-parametric curve fitting. […] Two independent experiments were performed (N1 and N2).
Data set [3] has as its system T-ALL (T-cell Acute Lymphoblastic Leukemia) and different types of solid tumors. Particulars: cited from earlier work.
The next data set deals with CALU1. Briefly: Lung cancer cell line viability, single agent or 1:1 combination (CTG 120h), Example 7. The data set is classed as cell-based. Particulars: CALU1, CTG 120 h. The protocol: (§2) Cell lines were cultured in the media described above at 37° C. in a humidified atmosphere containing 5% CO2. Cells were seeded in 96 well clear bottom plates (96 well clear-bottom, white, Corning reference 3903) and exposed to the mAbs, mAbs mixture, ADCs or ADCs mixture as single agents or in 1:1 combination with Paclitaxel. When in 1:1 combination, both the combining partner (Paclitaxel) and the mAb, mAb mixture, ADC or ADC mixture were serially diluted (9 concentrations each, triplicates). Effect on cell viability was assessed after 5 days of incubation at 37° C./5% CO2 by quantification of cellular ATP levels using CellTiter-Glo reagent (Promega Ref: G7571) at 75 μL reagent/well. All the conditions were tested in triplicates. Luminescence was quantified on a multipurpose plate reader. IC50s were calculated using standard four-parametric curve fitting. IC50 is defined as the compound concentration at which the CTG signal is reduced to 50% of that measured for the control. Two independent experiments were performed (N1 and N2).

The test system of a further data set is HCC366. The data set is described as above. It is filed as cell-based. To be noted: HCC366, CTG 120 h. The protocol: as §2
In another data set the test system is HCC4006. Described as above. The data set is classed as cell-based. To be noted: HCC4006, CTG 120 h. On the procedure: as §2
Another data set has as its system HCC78. The description is as above. The data set is classed as cell-based. To be noted: HCC78, CTG 120 h. On the procedure: as §2
The subject of the next data set is HCC827. The data set is described as above. The data set is classed as cell-based. To be noted: HCC827, CTG 120 h. On the procedure:
as §2

For a further data set, the system named is LU65. The description is as above. Particulars: LU65, CTG 120 h. The data set is classed as cell-based. The protocol:
as §2

For a further data set, the system named is NCI-H1838. The data set is described as above. The data set is classed as cell-based. To be noted: NCI-H1838, CTG 120 h. On the procedure:
as §2

For another data set, the system named is NCI-H1975. Described as above. It is filed as cell-based. To be noted: NCI-H1975, CTG 120 h. The protocol:
as §2

A further data set concerns NCI-H441. The description is as above. It is filed as cell-based. To be noted: NCI-H441, CTG 120 h. The protocol:
as §2

The test system of a further data set is lymphocyte proliferation. To be noted: in vitro; cited from earlier work.
For another data set, the system named is arthritis and lupus. To be noted: mice, animal models of arthritis and lupus; cited from earlier work.
The next data set relates to allogeneic T-cell. Particulars: in vitro; cited from earlier work.
In data set [4] the test system is allogeneic T- and B-cell responses. To be noted: after skin transplantation; cited from earlier work.

pIC50: −log10 of the molar value. Non-standard residues stand in square brackets, D forms with d. Residues, ends and D or L forms follow the SMILES beside them. *: point of attachment. Dolaproine = CO[C@@H]([C@@H]1CCCN1)[C@@H](C)C(=O)O; Dil = CC[C@H](C)[C@H](NC)[C@@H](CC(=O)O)OC; X1 = C[C@@H](N*)[C@@H](O)c1ccccc1; NMeV = CN[C@H](C(=O)O)C(C)C

`CC1(C)CCC(c2ccc(Cl)cc2)=C(CN2CCN(c3ccc(C(=O)NS(=O)(=O)c4ccc(N[C@H](CCN5CCOCC5)CSc5ccccc5)c(S(=O)(=O)C(F)(F)F)c4)cc3)CC2)C1` [ABT-263, navitoclax]: in [1], the “activity in pre-clinical models” value is “has shown activity”. In addition, the “antitumor activity in clinical studies” value in the data set with lymphoid malignancies is on record as “objective antitumor activity”.
In the case of `Nc1ccn([C@@H]2O[C@H](CO)[C@@H](O)C2(F)F)c(=O)n1` [Gemcitabine, gemcitabine], the pIC50 in the data set with AsPC-1 (mean) was 6.62; in the data set on AsPC-1 (n1) it was 6.39; in the data set with AsPC-1 (n2), 7.12; with BxPC-3 (mean) it was 7.89; in the data set on BxPC-3 (n1), 7.97; with BxPC-3 (n2), 7.82. In addition, the pIC50 with Hs766T (mean) is below 4.52; with Hs766T (n1) it was below 4.52; with Hs766T (n2), below 4.52; with KP-4 (mean), 7.96; with KP-4 (n1), 8.01; with KP-4 (n2), 7.92. Further, the pIC50 is 7.17 in the data set on Panc 10.05 (mean), 7.23 in the data set on Panc 10.05 (n1) and 7.11 with Panc 10.05 (n2). The “effect on the viability” value in data set [2] was “induced dose dependent decrease in cell viability with measurable IC50 for most of the cell lines”.
With `Cc1c(-c2ccc(N3CCc4cccc(C(=O)Nc5nc6ccccc6s5)c4C3)nc2C(=O)O)cnn1CC12CC3CC(CC(C3)C1)C2` [A-1331852], the “in vivo activity in pre-clinical models” value in [3] is listed as “exhibited in vivo activity”.
With `CN(C)CC#Cc1ccc(OCCCc2sc(N3CCc4cccc(C(=O)Nc5nc6ccccc6s5)c4C3)nc2C(=O)O)c(F)c1` [A-1155463], the “in vivo activity in pre-clinical models” value in data set [3] was “exhibited in vivo activity”.
Turning to `CC[C@H](C)[C@@H]([C@@H](CC(=O)N1CCC[C@H]1[C@H](OC)[C@@H](C)C(=O)N[C@H](C)[C@@H](O)c1ccccc1)OC)N(C)C(=O)[C@@H](NC(=O)[C@@H](NC)C(C)C)C(C)C` [MMAE, monomethyl auristatin E] (H-[NMeV]V[Dil][Dolaproine]-X1), the pIC50 was 9.00 in the data set on CALU1 (Mean); 9.19 with CALU1 (n1); 8.86 in the data set on CALU1 (n2); 9.19 in the data set on HCC366 (Mean); 9.28 with HCC366 (n1); 9.12 in the data set on HCC366 (n2). Further, the pIC50 in the data set on HCC4006 (Mean) was 9.72; in the data set with HCC4006 (n1) it was 9.92; in the data set on HCC4006 (n2) it was 9.59; with HCC78 (Mean), 9.24; with HCC78 (n1) it was 9.27; in the data set on HCC78 (n2) it was 9.22. Moreover, the negative logarithm of the IC50 (pIC50) was 8.88 in the data set with HCC827 (Mean); 8.84 in the data set with HCC827 (n1); 8.94 in the data set on HCC827 (n2); 9.08 in the data set on LU65 (Mean); 9.15 in the data set with LU65 (n1); 9.02 in the data set on LU65 (n2). The pIC50 with NCI-H1838 (Mean) is 7.22; in the data set on NCI-H1838 (n1), 7.05; in the data set with NCI-H1838 (n2), 7.49; in the data set on NCI-H1975 (Mean), 9.60; in the data set on NCI-H1975 (n1), 9.60; in the data set on NCI-H441 (Mean), 9.42. The pIC50 in the data set with NCI-H441 (n1) was 9.40; in the data set on NCI-H441 (n2), 9.44.
Consider `CC(=O)Nc1cccc(-n2c(=O)n(C3CC3)c(=O)c3c(Nc4ccc(I)cc4F)n(C)c(=O)c(C)c32)c1` [Trametinib, N-(3-{3-cyclopropyl-5-[(2-fluoro-4-iodophenyl)amino]-6,8-dimethyl-2,4,7-trioxo-3,4,6,7-tetrahydropyrido[4,3-d]pyrimidin-1(2H)-yl}phenyl)acetamide], for which the negative-log IC50 (pIC50) with AsPC-1 (mean) was 8.01; with AsPC-1 (n1), 8.05; in the data set on AsPC-1 (n2), 7.97; in the data set with BxPC-3 (mean), 7.93; in the data set with BxPC-3 (n1) it was 8.09; in the data set on BxPC-3 (n2), 7.82. The pIC50 in the data set with Hs766T (mean) was 8.55; with Hs766T (n1), 8.60; in the data set with Hs766T (n2), 8.51; with KP-4 (mean), 5.78; in the data set on KP-4 (n1), 6.21; in the data set with KP-4 (n2), 5.57. Besides, the results for the pIC50 in the data set with Panc 10.05 (mean), with Panc 10.05 (n1) and in the data set on Panc 10.05 (n2) were 7.24, 7.49 and 7.08, respectively. Besides, in data set [2], the “effect on the viability” value is “induced dose dependent decrease in cell viability with measurable IC50 for most of the cell lines”.
Regarding `CN(C)CC[C@H](CSc1ccccc1)Nc1ccc(S(=O)(=O)NC(=O)c2ccc(N3CCN(Cc4ccccc4-c4ccc(Cl)cc4)CC3)cc2)cc1[N+](=O)[O-]` [ABT-737], the “inhibition of lymphocyte proliferation” value in the data set with lymphocyte proliferation is “potent inhibition”. Moreover, the disease severity result in the data set on arthritis and lupus is “significant decrease in disease severity”. For the same compound, in the data set with allogeneic T-cell, the “allogeneic T-cell activation, proliferation, and cytotoxicity” value is listed as “prevented”. In addition, the “allogeneic T- and B-cell responses” value in data set [4] was “inhibited”.
